biological target: T1, Nucleotide-binding oligomerization domain-containing protein 1 (Homo sapiens, UniProt Q9Y239); test: NOD1 signaling inhibitors, SAR follow-up, revised (AID 2333)
T1 sequence (Q9Y239 whole entry): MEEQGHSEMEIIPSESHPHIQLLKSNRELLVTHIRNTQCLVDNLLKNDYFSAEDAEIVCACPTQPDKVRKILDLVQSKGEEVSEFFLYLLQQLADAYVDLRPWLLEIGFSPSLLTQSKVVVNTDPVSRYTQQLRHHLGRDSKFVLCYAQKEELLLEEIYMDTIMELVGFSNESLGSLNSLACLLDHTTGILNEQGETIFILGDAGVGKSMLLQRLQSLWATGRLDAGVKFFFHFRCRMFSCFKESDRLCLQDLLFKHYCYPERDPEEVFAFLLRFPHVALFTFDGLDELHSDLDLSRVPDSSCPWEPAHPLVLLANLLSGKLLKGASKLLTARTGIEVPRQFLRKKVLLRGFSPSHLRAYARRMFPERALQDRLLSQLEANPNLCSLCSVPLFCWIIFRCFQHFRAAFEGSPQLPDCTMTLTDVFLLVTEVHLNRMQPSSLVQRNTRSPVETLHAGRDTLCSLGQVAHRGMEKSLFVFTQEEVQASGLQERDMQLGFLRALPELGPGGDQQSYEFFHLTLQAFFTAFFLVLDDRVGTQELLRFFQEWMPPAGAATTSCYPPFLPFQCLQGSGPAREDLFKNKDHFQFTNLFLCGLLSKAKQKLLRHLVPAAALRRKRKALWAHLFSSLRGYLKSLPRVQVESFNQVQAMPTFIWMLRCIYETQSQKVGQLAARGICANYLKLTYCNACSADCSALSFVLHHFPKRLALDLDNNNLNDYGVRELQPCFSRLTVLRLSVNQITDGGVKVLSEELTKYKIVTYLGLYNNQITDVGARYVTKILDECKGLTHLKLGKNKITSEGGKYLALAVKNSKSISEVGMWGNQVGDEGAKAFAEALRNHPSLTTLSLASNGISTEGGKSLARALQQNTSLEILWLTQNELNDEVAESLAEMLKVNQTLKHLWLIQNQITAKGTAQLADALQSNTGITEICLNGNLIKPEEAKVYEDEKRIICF

`Cc1cc(Br)ccc1SCC(=O)OCC(=O)C(C#N)c1nc2ccccc2[nH]1` (stereo not drawn) [2-[(4-bromo-2-methylphenyl)thio]acetic acid [3-cyano-3-(1,3-dihydrobenzimidazol-2-ylidene)-2-oxopropyl] ester] and `Cc1ccc(C)c(SCC(=O)OCC(=O)C(C#N)c2nc3ccccc3[nH]2)c1` (stereo not drawn) [MLS000392255] cannot be ordered by IC50: over 20 µM for the first, over 20 µM for the second.

`N#CC(C(=O)COC(=O)CSc1ccc2ccccc2c1)c1nc2ccccc2[nH]1` (stereo not drawn) [[3-cyano-3-(1,3-dihydrobenzimidazol-2-ylidene)-2-oxopropyl] 2-naphthalen-2-ylsulfanylacetate] and `N#CC(C(=O)COC(=O)CSc1ccc(Cl)cc1)c1nc2ccccc2[nH]1` (stereo not drawn) [MLS-0208254.0001] cannot be ordered by IC50: over 20 µM for the first, over 20 µM for the second.

`CCCOC1=CC(=O)C(C=NNC(=S)Nc2ccccc2[N+](=O)[O-])C=C1` (stereo not drawn) [1-(2-nitrophenyl)-3-[[(E)-(6-oxo-4-propoxy-1-cyclohexa-2,4-dienylidene)methyl]amino]thiourea] and `CCOC1=CC=CC(C=NNC(=S)Nc2ccccc2[N+](=O)[O-])C1=O` (stereo not drawn) [MLS-0270696.0001] are within 1.5-fold of each other in IC50: 7.73 µM for the first, 8.23 µM for the second.

`Cc1ccc(O)c(/N=C/C2=CC(Cc3ccccc3)C=C([N+](=O)[O-])C2=O)c1` (stereo not drawn) [(6E)-6-[[(5-methyl-2-oxidanyl-phenyl)amino]methylidene]-2-nitro-4-(phenylmethyl)cyclohexa-2,4-dien-1-one] and `Cc1cc(SCC(=O)OCC(=O)C(C#N)c2nc3ccccc3[nH]2)c(C)cc1Br` (stereo not drawn) cannot be ordered by IC50: over 20 µM for the first, over 20 µM for the second.
